Measurements: patent publication US12275706B2, “Malate salt of N-(4-{[6,7-bis(methyloxy) quinolin-4-yl]oxy}phenyl)-N′-(4-fluorophenyl)cyclopropane-1,1-dicarboxamide, and crystalline forms thereof for the treatment of cancer” (Exelixis, Inc., priority 2009, dated 2025)

Assays:
[1] = Salt screen: salt formation, crystallinity, hygroscopicity and other data; settings: Table 1
[2] = Water solubility of free base and salts (salt screen); settings: for Solubility: water, 10 mg solids per mL water
[3] = Solid state stability on exposure to high humidity and temperature; assay type: physicochemical
Text: Other solid state properties which may be used to characterize the crystalline N-1 forms of Compounds (I) and (II) are shown in the figures and discussed in the examples below.

physchem = settings: water, thermodynamic from solid
[4] = Moisture sorption (water uptake); assay type: physicochemical
Method: (§1) The amount of water taken up was calculated at about 0.60 wt % at 90% RH. […] The amount of water associated with this salt was calculated at about 0.5 wt % by Karl Fischer analysis and correlates with TGA and GVS analysis.
Moisture sorption isotherms were collected in a VTI SGA-100 Symmetric Vapor Analyzer using approximately 10 mg of sample. The sample was dried at 60° C. until the loss rate of 0.0005 wt %/min was obtained for 10 minutes. The sample was tested at 25° C. and 3 or 4, 5, 15, 25, 35, 45, 50, 65, 75, 85, and 95% RH. Equilibration at each RH was reached when the rate of 0.0003 wt %/min for 35 minutes was achieved or a maximum of 600 minutes.

[5] = Karl Fischer water analysis; assay type: physicochemical; settings: correlates with TGA and GVS
Method: as §1

[6] = DSC/TGA thermal stability; assay type: physicochemical
Method: as §1
The TGA measurements were performed in a TA Instruments™ model Q500 or 2950, employing an open pan setup. The sample (about 10-30 mg) was placed in a platinum pan previously tared. The weight of the sample was measured accurately and recorded to a thousand of a milligram by the instrument. The furnace was purged with nitrogen gas at 100mL/min. Data were collected between room temperature and 300° C. at 10° C./min heating rate.
DSC measurements were performed in a TA Instruments™ model Q2000, Q1000 or 2920, employing an open pan setup. The sample (about 2-6 mg) was weighed in an aluminum pan and recorded accurately recorded to a hundredth of a milligram, and transferred to the DSC. The instrument was purged with nitrogen gas at 50 mL/min. Data were collected between room temperature and 300° C. at 10° C./min heating rate. The plot was made with the endothermic peaks pointing down.

[7] = Storage stability at controlled temperature/relative humidity; assay type: physicochemical

Malonate
other data relating to the free base and each salt (salt formation, crystallinity, hygroscopicity, remarks) [1]: Crystalline salt, low solubility

Tosylate
other data relating to the free base and each salt (salt formation, crystallinity, hygroscopicity, remarks) [1]: Crystalline salt, low solubility | Solubility [2]: 0.007 mg/mL

Cl [Chloride]
other data relating to the free base and each salt (salt formation, crystallinity, hygroscopicity, remarks) [1]: Crystalline but Hygroscopic; possible hydrate | moisture sensitivity, phase ([3]; high humidity (75% humidity) and high temperature (40° C.)): undesirable moisture sensitivity, changing phase

Benzoate
other data relating to the free base and each salt (salt formation, crystallinity, hygroscopicity, remarks) [1]: no salt formation; mixture of free base and acid

COc1cc2nccc(Oc3ccc(NC(=O)C4(C(=O)Nc5ccc(F)cc5)CC4)cc3)c2cc1OC [Free base, N-(4-{[6,7-bis(methyloxy)quinolin-4-yl]oxy}phenyl)-N′-(4-fluorophenyl)cyclopropane-1,1-dicarboxamide]
other data relating to the free base and each salt (salt formation, crystallinity, hygroscopicity, remarks) [1]: very low solubility | Solubility (physchem): < 0.001 mg/mL

Phosphate
other data relating to the free base and each salt (salt formation, crystallinity, hygroscopicity, remarks) [1]: Crystalline but Hygroscopic. | Solubility [2]: 0.026 mg/mL | weight gain due to absorption of H2O ([4]; highest among the salts tested): 8%

L-Lactate
other data relating to the free base and each salt (salt formation, crystallinity, hygroscopicity, remarks) [1]: Amorphous, salt

CC(=O)O [Acetate]
other data relating to the free base and each salt (salt formation, crystallinity, hygroscopicity, remarks) [1]: no salt formation; mixture of free base and acid

O=S(=O)(O)O [Sulfate]
other data relating to the free base and each salt (salt formation, crystallinity, hygroscopicity, remarks) [1]: Crystalline salt, low solubility

C1=Cc2cccc(OC[C@H]3CNCCO3)c2C1.O=S(=O)(O)c1ccccc1 [Benzenesulfonate]
other data relating to the free base and each salt (salt formation, crystallinity, hygroscopicity, remarks) [1]: Crystalline Salt; possible sulfonic acid formation

COc1cc2nccc(Oc3ccc(NC(=O)C4(C(=O)Nc5ccc(F)cc5)CC4)cc3)c2cc1OC.O=C(O)C[C@H](O)C(=O)O [Compound (I), N-(4-{[6,7-bis(methyloxy)quinolin-4-yl]oxy}phenyl)-N′-(4-fluorophenyl)cyclopropane-1,1-dicarboxamide, (L) Malate Salt]
solid state phase and degree of crystallinity ([3]; 75% RH at 40° C. for 1 week): remained unchanged | amount of water associated with the salt [5]: about 0.5 wt % | solubility (in words) [2]: sufficient solubility for use in a pharmaceutical composition | Solubility [2]: 0.059 mg/mL | solvent losses (DSC/TGA) [6]: No solvent losses were observed | stable up to (DSC/TGA) [6]: up to 185 °C | change in assay, purity, moisture and dissolution ([7]; 25° C./60% relative humidity (RH)): no change in assay, purity, moisture and dissolution | change in assay, purity, moisture and dissolution ([7]; 40° C./60% RH): no change in assay, purity, moisture and dissolution | uptake of water, reversibility [4]: reversible with a slight hysteresis | amount of water taken up ([4]; at 90% RH): about 0.60 wt %

Fumarate
other data relating to the free base and each salt (salt formation, crystallinity, hygroscopicity, remarks) [1]: Crystalline Salt, low solubility
